Data published in publication PMC9321647, “Curcumin-Based β-Diketo Ligands for Ga^3+: Thermodynamic Investigation of Potential Metal-Based Drugs” (Pharmaceuticals, 2022).
Like-named read-outs stand apart in the source and are kept apart here.

Assays:
[1] = system: transferrin; design: method as in PMID 22800370; conditions: normal plasma bicarbonate concentrations; cited from earlier work
[2] = Kinetic stability of ligands in simulated physiological conditions (UV-Vis); format: physicochemical
Method: The chemical stability of ligands and metal complexes at the M:L 1:L molar ratio at 37 °C in darkness was evaluated by UV−Vis spectroscopy as a change in absorbance in the 250−600 nm range over an overall period of 8 h. Solutions (5.0 × 10^–5 mol L^–1) of the ligands were prepared in 0.1 mol L^–1 phosphate-buffered solution (PBS) at pH 7.4. Spectra were recorded every 30 min. All profiles were linearized as the hyperbolic function defined by Equation (2), which represents an empirical model that describes drug decomposition or release well [42]:(2) t/f%=at+b where f% is the percentage of the residual compound at time t (min) referred to the starting concentration at time zero determined by reading the absorbance at λmax.

[3] = Keto-enol/diketo tautomer amounts by 1H NMR; format: physicochemical; conditions: molar percentage, MeOD-d4, 298 K
Method: NMR spectra were recorded by means of a Bruker Biospin FT-NMR AVANCE III HD (600 MHz) spectrometer equipped with a CryoProbe BBO H&F 5 mm in inverse detection. The nominal frequencies were 150.90 MHz for ^13C and 600.13 MHz for ^1H, respectively. For each sample, 1–5 mg were weighed and diluted up to 0.6 mL with a proper solvent in a 5 mm NMR tube; 90° pulse was calibrated for each sample, and standard NMR parameters were used to achieve quantitative results (relaxation delay, 10 s). Proton and carbon chemical shifts are given in parts per million (ppm) versus external TMS and were determined by reference to the solvent residual signals. Typical 2D homo- and heteronuclear techniques were used for assignment, i.e., ^1H,^1H COSY, ^1H,^13C HSQC, ^1H,^13C HMBC. NMR investigations of Ga^3+:L systems were performed in MeOD-d4 by adding small amounts of a Ga(NO3)3 solution (10 μL each) to 1 mM ligand solution (0.6 mL) until reaching the desired metal-to-ligand molar ratio. The complexation reaction is fast, and spectra were registered few minutes after the addition. Two-dimensional ^1H,^13C heteronuclear multiple bond correlation (HMBC) experiments (hmbcgpndqf in Bruker library) were performed via heteronuclear zero and double quantum coherence, optimized on long-range couplings (^3/4JHC = 8 Hz), with no decoupling during acquisition, and gradient pulses were used for selection. The relative percentages of the isomeric forms were estimated on the basis of the NMR data. Particularly, ^1H NMR spectra were acquired in quantitative conditions being D1 (relaxation delay) at least five times the T1 of the slowest relaxing signal of interest. The raw data were Fourier-transformed, and then the processing was performed by zero filling (SI = TD), line broadening (lb 0.3 Hz), accurate phasing and correcting the baseline. The most isolated signals were selected for integration, i.e., the vinyl protons (H-3 and H-4), and an average of the integrated area (A) of H-3 and H-4 was used for relative quantitation, according to the following equation: %Tautomeri=(A(H−3)i+(A(H−4)i)/2/∑i(A(H−3)i+(A(H−4)i)/2×100

[4] = Spectrophotometric pH titrations of ligands (protonation constants, pKa); format: physicochemical; conditions: 298 K; for pKa: aqueous solution (methanol stock diluted in water), calculated from logβ values, * = keto–enol moiety dissociation
Method: (§1) UV–visible spectra were recorded with a JASCO V-570 UV/Vis/NIR spectrophotometer at 298 K in the 250–600 nm spectral range employing quartz cells (1 cm optical path). To perform spectrophotometric titrations, ligands (denoted generally as L in the following) were dissolved in methanol to give a mother solution (2.50 mM), that was then diluted in water in order to obtain a final concentration of 50 μM. The metal/ligand (M:L) solutions were obtained by adding appropriate quantities of Ga(NO3)3 as methanol solutions (5–10 mM) in order to obtain the metal-to-ligand 1:1 molar ratio (L = 50 μM and V = 25 mL). For both L and M:L systems, pH (initial value of about 5) was varied by adding small amounts (<1 μL) of concentrated NaOH (4 M) up to ca. pH 11, thus to consider volume variations negligible. To evaluate the complexation ratio, constant additions of the M solution (10 µL each time, M = 10^–2 M) were dropped into the ligand solution (V = 25 mL, L = 50 μM) using a micropipette in order to reach different M:L molar ratios. A constant ionic strength (NaNO3, 0.1 M) was maintained in all experiments. Spectrophotometric investigations of iron(III) systems were performed in the same conditions; the Fe^3+ solution was freshly prepared in methanol starting from Fe(NO3)3·9H2O. The overall protonation constants (logβqr) and the overall stability constants of metal complexes (logβpqr) were evaluated from spectrophotometric data. The stability constants (βpqr), defined by the following equations:(3) pM^m++qL^l^−+rH^+⇌MpLqHr(mp−lq+r) (4) βpqr=[MpLqHr(mp−lq+r)]/[M^m+]^p·[L^l−]^q·[H^+]^r where L is the ligand in the completely dissociated form and H is proton, were refined using least-squares calculation in HypSpec. The results of least-squares calculation include the standard deviations and correlation coefficients of the refined parameters. The quantities are obtained by performing error propagation calculation from the experimental errors onto the parameters. The stability constant refinement furnishes least-squares estimates of the standard deviation, σ, of the stability constant β. The error on logβ is calculated as follows: σ(logβ) = [log(β + σ) − log(β − σ)]/2.

[5] = Spectrophotometric pH-metric titrations of Ga^3+:ligand systems (stability constants, pGa, speciation); format: physicochemical
Method: as §1
Hydroxide species, such as [Ga(OH)2]^+, were taken into account for calculations. The hydrolysis constants for Ga^3+ are as follows: logβ1,1,0 = −3.93; logβ2,1,0 = −7.73; logβ3,1,0 = −12.38; logβ4,1,0 = −15.96; logβ32,13,0 = −66.3; logβ3,1,0(s) = −3.54 [43]; pGa is defined as (−log[Ga^3+]free) and is calculated at specific conditions (Ga^3+total = 1 μM, Ltotal = 10 μM, pH 7.4, 25 °C). For the calculation of the iron(III) overall stability constants, the presence of [Fe(OH)]^2+, [Fe(OH)2]^+ and [Fe(OH)3] species was taken into account.

[6] = system: HCT116 colon carcinoma cells; assay: MTT cell viability assay; format: cell-based, Human; conditions: Homo sapiens, HCT-116, HCT116, 48 h of treatment, mean
Method: Human colorectal carcinoma HCT116 cells (#91091005, ECACC) were grown in an IMDM medium (Biowest) supplemented with 2 mM glutamine, 100 IU/mL penicillin, 100 μg/mL streptomycin and 10% FBS (Gibco). The cell lines were grown at 37 °C in a humidified incubator containing 5% CO2. The cells were verified to be mycoplasma-free and passaged < 3 months. The inhibition of cell proliferation was measured by colorimetric 3-(4,5-dimethylthiazol-2-yl)-2,5-diphenyltetrazolium bromide (MTT) assay. GI50 concentrations were determined using the CompuSyn software version 1.0 (ComboSyn, Inc., Paramus, NJ USA) (free download via www.combosyn.com, accessed on 30 May 2022), and statistical analyses were performed using the GraphPad PRISM software (version 6.01 for Windows, GraphPad Software, San Diego, California USA GraphPad Prism) using unpaired t-test. Data were considered to be statistically significant if p < 0.05 (*), p < 0.01 (**), p < 0.001(***) and p < 0.0001 (****).

[7] = cited from earlier work
[8] = HypSpec, spectrophotometric data

## [Fe+3] [Fe^3+]
[1]
  log K1 binding constant to transferrin: 22.8
  log K2 binding constant to transferrin: 21.7

## O=C(/C=C/c1ccc(O)cc1)C(CCCN1C(=O)c2ccccc2C1=O)C(=O)/C=C/c1ccc(O)cc1 [Compound 3]
[2]; PBS, pH 7.4, 37 °C in darkness, 4 h
  Stability: percentage of the residual ligand after 4 h: 47%
[2]; rank among the 7 ligands, 1 = most stable
  Stability ranking (residual ligand after 4 h): 6
[3]
  KK (%) amount of diketo form: 55%
[3]; for 2 includes KE form of the Z isomer (6%)
  KE (%) amount of keto–enol form: 45%
[4]; [8]
  logβ011 overall protonation constant: 10.88 (2)
  logβ012 overall protonation constant: 20.29 (2)
  logβ013 overall protonation constant: 28.84 (4)
[4]; read-out: pKa1
  pKa: 8.55
[4]; read-out: pKa2
  pKa: 9.41
[4]; read-out: pKa3
  pKa: 10.9
[5]; 298 K, HypSpec
  log β 112 overall stability constant (Ga^3+): 28.28 (3)
  log β 124 overall stability constant (Ga^3+): 54.63 (5)
[5]; 298 K, estimated from logβMLH
  logK11 apparent formation constant (Ga^3+, M:L 1:1): 7.99
  logK12 apparent formation constant (Ga^3+, M:L 1:2): 14.05
[5]; Ga^3+ complex species, pH 5.5
  Prevailing Species (pH 5.5): [Ga(H2L)2]^+
[5]; Ga^3+ complex species, pH 7.4, ** possible formation of gallium hydroxide species
  Prevailing Species (pH 7.4): [Ga(H2L)2]^+
[5]; [Ga^3+]total = 1 μM, [L]total = 10 μM, pH 7.4, 25 °C
  pGa (−log[Ga^3+]free): 20.8
[6]
  GI50: 6.21 µM

## [Ga+3] [Ga^3+]
[1]
  log K1 binding constant to transferrin: 20.3
  log K2 binding constant to transferrin: 19.3

## O=C(O)CCP(=O)(O)CN1CCN(CP(=O)(O)CCC(=O)O)CCN(CP(=O)(O)CCC(=O)O)CC1 [PrP9]
[7]
  pGa: 23.1

## CC(=O)N(O)CCCCCNC(=O)CCC(=O)N(O)CCCCCNC(=O)CCC(=O)N(O)CCCCCN [DFOB]
[7]
  pGa: 21.6

## COc1cc(/C=C/C(=O)CC(=O)/C=C/c2ccc(O)c(OC)c2)ccc1O [CUR, Curcumin]
[6]
  GI50: 12.9 µM
